Measurements as given in patent publication US20060241108A1, “Substituted phenoxazines and acridones as inhibitors of AKT” (St. Jude Children's Research Hospital, priority 2005, published 2006).

Experiments:
[1] = tested on: mTOR (Ser2448 and Ser2481), rpS6 (Ser235/236) and p70S6 kinase (Thr389); test: IGF-I induced phosphorylation of AKT downstream targets in Rh1 cells, Western blot; assay type: cell-based, human; details: 3.5 to 5.0 μM, 1 hour, Rh1 cells serum-free, IGF-I 10 minutes
Method: Cellular screening for inhibitors. Rh1, Rh18 and Rh30 cells can each be seeded at a density of 4×10^6/10-cm plate in serum-free medium for overnight attachment. The cells can then be exposed to 0.1% DMSO or to a test compound (for example, a phenoxazine or acridone compound) for one hour, then stimulated with Insulin-like growth factor-I (IGF-I) (10 ng/ml) for 10 minutes.
Western blot analysis. Cells are rapidly washed with ice-cold phosphate-buffered saline (PBS), placed on ice, and lysed in mammalian protein extraction reagent (M-PER; available from Pierce, Rockford, Ill.) containing one Complete™ mini protease inhibitor tablet (available from Boehringer Mannheim, Mannheim, Germany), 1 mM phenylmethylsulfonyl fluoride, 1 mM Na3VO4 and 1 mM NaF. Cellular debris is pelleted by centrifugation at 17,500×g for 10 minutes at 4° C. The protein concentration of the supernatants is measured by the bicinchoninic acid assay (e.g., using the BCA™ Protein Assay Kit, Pierce, Rockford, Ill., catalog number 23225 or 23227) using bovine serum albumin as the standard.
For the analysis of AKT, ERK-1/2, mTOR, p70S6 kinase, ribosomal protein S6 (rpS6 or S6), and glycogen synthase kinase 3 (GSK-3), equivalent amounts of protein can be separated on a 12% SDS-polyacrylamide gel (available from BioRad, Hercules, Calif.) by electrophoresis and subsequently transferred to a nitrocellulose membrane (also available from BioRad). […]

[2] = tested on: AKT; test: Translocation of AKT from cytoplasm to nucleus in Rh1 cells, confocal microscopy; assay type: cell-based, human; details: 5 μM, 1 hour, IGF-1 10 ng/ml 20 minutes
Method: Translocation of AKT in Rh1 cells. Rh1 cells (2×10^5 per chamber) can be grown on 2-well glass chamber slides (available from Falcon, Franklin Lakes, N.J.) in serum-free medium containing fibronectin (10 μg/ml). Preferably after twenty hours, the cells are exposed to DMSO (0.1%, vehicle control) or test compound (e.g., 5 μM of phenoxazine or acridone compound) for one hour and then stimulated with IGF-I (10 ng/ml) for 20 minutes. Cells are preferably washed twice with PBS and fixed in 4% formaldehyde for 30 minutes at room temperature. The samples are then rinsed twice with PBS and permeabilized with 1% Triton X-100 for five minutes at room temperature. After rinsing twice with PBS, the cells are incubated with an anti-AKT antibody (available from Rockland, West Chester, Pa.) (1:50 dilution) for 45 minutes at 37° C. […] After rinsing twice with PBS, the slides can be mounted in media containing TOPRO-3 (also available from Molecular Probes) and analyzed by routine confocal microscopy.
Upon activation, AKT translocates to the nucleus (see, e.g., Biggs et al. Proc. Natl. Acad. Sci. USA 1999;96:7421-7426; Brownawell et al. Mol. Cell. Biol. 2001;21:3534-3546; Brunet et al. Cell 1999;96:857-868; and Rena et al. J. Biol. Chem. 1999;274:17179-17183). […] Cellular localization of AKT may then be assessed, e.g. by confocal microscopy.

| Compound | inhibition of IGF-I induced phosphorylation of mTOR, rpS6 and p70S6 kinase [1] | nuclear localization of AKT [2] |
| --- | --- | --- |
| 10-[4′-[(β-hydroxyethyl)piperazino]butyl]-2-chlorophenoxazine [Compound 15B] | markedly inhibited | block in nuclear localization occurs |
| CCN(CC)CCCCN1c2ccccc2Oc2ccc(Cl)cc21 [Compound 10B, 10-[4′-(N-diethylamino)butyl]-2-chlorophenoxazine] | markedly inhibited | block in nuclear localization occurs |
